Laboratory results reported in the NIST ThermoML archive (doi:10.1007/s10765-009-0579-1).

Assay: xn = mol fraction of the nth substance listed
Conditions: Gas; for viscosity: Oscillating disk viscometry; for mass density: Pycnometric method

CC(F)(F)Cl [1-chloro-1,1-difluoroethane] + FC(F)Cl
Conditions | mass density [kg/m3] | viscosity [mPa·s]
298.15 K, 101.5 kPa, x2 = 0.5169 | 3.896 | 0.01164
298.15 K, 101.7 kPa, x2 = 0.7502 | 3.754 | 0.01219
298.15 K, 101.8 kPa, x2 = 0.2615 | 4.07 | 0.01109
298.15 K, 177.1 kPa, x2 = 0.5169 | 6.906 | 0.01163
298.15 K, 198 kPa, x2 = 0.7502 | 7.44 | 0.01217
298.15 K, 205.6 kPa, x2 = 0.2615 | 8.45 | 0.01104
298.15 K, 248.7 kPa, x2 = 0.5169 | 9.867 | 0.0116
298.15 K, 291.6 kPa, x2 = 0.7502 | 11.16 | 0.01212
298.15 K, 299.2 kPa, x2 = 0.2615 | 12.59 | 0.01102
298.15 K, 323.9 kPa, x2 = 0.5169 | 13.12 | 0.01159
298.15 K, 357.3 kPa, x2 = 0.2615 | 15.25 | 0.01103
298.15 K, 384.8 kPa, x2 = 0.7502 | 15.02 | 0.01212
298.15 K, 391.5 kPa, x2 = 0.5169 | 16.21 | 0.01158
298.15 K, 406.4 kPa, x2 = 0.2615 | 17.6 | 0.011
298.15 K, 453.1 kPa, x2 = 0.5169 | 19.06 | 0.01157
298.15 K, 477.3 kPa, x2 = 0.7502 | 18.96 | 0.0121
298.15 K, 571.3 kPa, x2 = 0.7502 | 23.23 | 0.01209
323.15 K, 101.8 kPa, x2 = 0.2615 | 3.732 | 0.01206
323.15 K, 102.2 kPa, x2 = 0.7502 | 3.468 | 0.0132
323.15 K, 102.4 kPa, x2 = 0.2615 | 3.755 | 0.01207
323.15 K, 103 kPa, x2 = 0.5169 | 3.663 | 0.01262
323.15 K, 190 kPa, x2 = 0.5169 | 6.762 | 0.01261
323.15 K, 199 kPa, x2 = 0.7502 | 6.842 | 0.0132
323.15 K, 200 kPa, x2 = 0.2615 | 7.459 | 0.01203
323.15 K, 276.2 kPa, x2 = 0.5169 | 10.03 | 0.01259
323.15 K, 297.3 kPa, x2 = 0.7502 | 10.36 | 0.01317
323.15 K, 299.4 kPa, x2 = 0.2615 | 11.38 | 0.01201
323.15 K, 373.4 kPa, x2 = 0.5169 | 13.8 | 0.01259
323.15 K, 396.6 kPa, x2 = 0.2615 | 15.36 | 0.012
323.15 K, 398.7 kPa, x2 = 0.7502 | 14.09 | 0.01318
323.15 K, 473.2 kPa, x2 = 0.5169 | 17.99 | 0.01258
323.15 K, 492.9 kPa, x2 = 0.2615 | 19.48 | 0.01199
323.15 K, 510 kPa, x2 = 0.7502 | 18.34 | 0.0132
323.15 K, 575.5 kPa, x2 = 0.5169 | 22.07 | 0.01257
323.15 K, 593.3 kPa, x2 = 0.2615 | 23.99 | 0.01199
323.15 K, 618.1 kPa, x2 = 0.7502 | 22.66 | 0.0132
323.15 K, 670.6 kPa, x2 = 0.5169 | 26.3 | 0.01258
323.15 K, 687 kPa, x2 = 0.2615 | 28.43 | 0.01202
323.15 K, 724.7 kPa, x2 = 0.7502 | 26.96 | 0.01318
323.15 K, 771 kPa, x2 = 0.5169 | 30.74 | 0.01259
323.15 K, 793.7 kPa, x2 = 0.2615 | 33.76 | 0.01211
323.15 K, 828.4 kPa, x2 = 0.7502 | 31.41 | 0.0132
323.15 K, 867.1 kPa, x2 = 0.5169 | 35.23 | 0.0126
323.15 K, 937.9 kPa, x2 = 0.7502 | 36.25 | 0.01322
348.15 K, 101.4 kPa, x2 = 0.5169 | 3.305 | 0.01354
348.15 K, 101.6 kPa, x2 = 0.7502 | 3.189 | 0.01427
348.15 K, 102.1 kPa, x2 = 0.2615 | 3.463 | 0.01295
348.15 K, 198.6 kPa, x2 = 0.5169 | 6.548 | 0.01355
348.15 K, 199 kPa, x2 = 0.2615 | 6.847 | 0.01294
348.15 K, 200.7 kPa, x2 = 0.7502 | 6.368 | 0.01423
348.15 K, 296.9 kPa, x2 = 0.2615 | 10.36 | 0.01293
348.15 K, 344.3 kPa, x2 = 0.7502 | 11.09 | 0.01422
348.15 K, 345.4 kPa, x2 = 0.5169 | 11.61 | 0.01355
348.15 K, 446.2 kPa, x2 = 0.2615 | 15.92 | 0.01294
348.15 K, 490.8 kPa, x2 = 0.5169 | 16.98 | 0.01355
348.15 K, 490.8 kPa, x2 = 0.7502 | 16.07 | 0.01424
348.15 K, 590.8 kPa, x2 = 0.2615 | 21.56 | 0.01297
348.15 K, 637.2 kPa, x2 = 0.5169 | 22.25 | 0.01354
348.15 K, 638.2 kPa, x2 = 0.7502 | 21.43 | 0.01423
348.15 K, 736.9 kPa, x2 = 0.2615 | 27.57 | 0.01297
348.15 K, 781.7 kPa, x2 = 0.5169 | 27.87 | 0.01358
348.15 K, 782.5 kPa, x2 = 0.7502 | 26.5 | 0.01425
348.15 K, 887.3 kPa, x2 = 0.2615 | 34.14 | 0.01301
348.15 K, 925.6 kPa, x2 = 0.7502 | 31.97 | 0.01428
348.15 K, 930.2 kPa, x2 = 0.5169 | 33.93 | 0.01365
348.15 K, 1036 kPa, x2 = 0.2615 | 40.96 | 0.01302
348.15 K, 1077 kPa, x2 = 0.5169 | 40.31 | 0.01365
348.15 K, 1090 kPa, x2 = 0.7502 | 38.36 | 0.0143
348.15 K, 1182 kPa, x2 = 0.2615 | 48.22 | 0.01307
348.15 K, 1240 kPa, x2 = 0.7502 | 44.53 | 0.01438
348.15 K, 1262 kPa, x2 = 0.5169 | 48.67 | 0.0137
348.15 K, 1334 kPa, x2 = 0.2615 | 56.48 | 0.01312
348.15 K, 1392 kPa, x2 = 0.7502 | 51.21 | 0.01443
348.15 K, 1408 kPa, x2 = 0.5169 | 56 | 0.01377
348.15 K, 1489 kPa, x2 = 0.2615 | 65.73 | 0.01325
348.15 K, 1541 kPa, x2 = 0.7502 | 58.1 | 0.0145
348.15 K, 1552 kPa, x2 = 0.5169 | 63.84 | 0.01386
348.15 K, 1683 kPa, x2 = 0.7502 | 64.7 | 0.01457
373.15 K, 101.5 kPa, x2 = 0.5169 | 3.079 | 0.01451
373.15 K, 102.1 kPa, x2 = 0.7502 | 2.984 | 0.01518
373.15 K, 102.2 kPa, x2 = 0.2615 | 3.224 | 0.01377
373.15 K, 245.8 kPa, x2 = 0.7502 | 7.266 | 0.01517
373.15 K, 294.3 kPa, x2 = 0.5169 | 9.101 | 0.01449
373.15 K, 298.2 kPa, x2 = 0.2615 | 9.612 | 0.0138
373.15 K, 390.1 kPa, x2 = 0.7502 | 11.68 | 0.0152
373.15 K, 490 kPa, x2 = 0.5169 | 15.46 | 0.01452
373.15 K, 493.6 kPa, x2 = 0.2615 | 16.27 | 0.01381
373.15 K, 583.4 kPa, x2 = 0.7502 | 17.74 | 0.01521
373.15 K, 686.2 kPa, x2 = 0.5169 | 22.09 | 0.01454
373.15 K, 695.2 kPa, x2 = 0.2615 | 23.4 | 0.01381
373.15 K, 782.8 kPa, x2 = 0.7502 | 24.22 | 0.01526
373.15 K, 876.7 kPa, x2 = 0.2615 | 30.25 | 0.01387
373.15 K, 879 kPa, x2 = 0.5169 | 28.79 | 0.01458
373.15 K, 889.8 kPa, x2 = 0.2615 | 30.77 | 0.01388
373.15 K, 978.5 kPa, x2 = 0.7502 | 30.82 | 0.0153
373.15 K, 1080 kPa, x2 = 0.5169 | 36.34 | 0.01464
373.15 K, 1085 kPa, x2 = 0.2615 | 38.57 | 0.01394
373.15 K, 1173 kPa, x2 = 0.7502 | 37.6 | 0.01535
373.15 K, 1277 kPa, x2 = 0.5169 | 43.98 | 0.01476
373.15 K, 1281 kPa, x2 = 0.2615 | 46.94 | 0.01403
373.15 K, 1361 kPa, x2 = 0.7502 | 44.52 | 0.01542
373.15 K, 1472 kPa, x2 = 0.5169 | 51.98 | 0.0148
373.15 K, 1483 kPa, x2 = 0.2615 | 56.2 | 0.01413
373.15 K, 1565 kPa, x2 = 0.7502 | 52.28 | 0.0155
373.15 K, 1666 kPa, x2 = 0.5169 | 60.38 | 0.01486
373.15 K, 1689 kPa, x2 = 0.2615 | 66.3 | 0.01426
373.15 K, 1760 kPa, x2 = 0.7502 | 60.2 | 0.01559
373.15 K, 1862 kPa, x2 = 0.5169 | 69.61 | 0.01502
373.15 K, 1897 kPa, x2 = 0.2615 | 77.72 | 0.01439
373.15 K, 1952 kPa, x2 = 0.7502 | 68.25 | 0.01568
373.15 K, 2065 kPa, x2 = 0.5169 | 80.02 | 0.01509
373.15 K, 2115 kPa, x2 = 0.2615 | 91.26 | 0.01461
373.15 K, 2190 kPa, x2 = 0.7502 | 79.1 | 0.01586
373.15 K, 2295 kPa, x2 = 0.5169 | 92.76 | 0.01537
373.15 K, 2299 kPa, x2 = 0.2615 | 104.3 | 0.01486
373.15 K, 2398 kPa, x2 = 0.7502 | 89.07 | 0.01602
373.15 K, 2448 kPa, x2 = 0.5169 | 102 | 0.01542
373.15 K, 2467 kPa, x2 = 0.2615 | 117.9 | 0.01516
